Structures are written as SMILES. Substitutions are numbered along the chain they refer to. pIC50: −log10 of the molar value.

Experiment [1] has as its target T1, ALK2 (Mus musculus, UniProt P37172).
T1 construct: The C2C12 cell line was selected for the measurement of ALK2 activity using BMP6 as the agonist; host or cells: C2C12
T1 sequence (P37172 21-509): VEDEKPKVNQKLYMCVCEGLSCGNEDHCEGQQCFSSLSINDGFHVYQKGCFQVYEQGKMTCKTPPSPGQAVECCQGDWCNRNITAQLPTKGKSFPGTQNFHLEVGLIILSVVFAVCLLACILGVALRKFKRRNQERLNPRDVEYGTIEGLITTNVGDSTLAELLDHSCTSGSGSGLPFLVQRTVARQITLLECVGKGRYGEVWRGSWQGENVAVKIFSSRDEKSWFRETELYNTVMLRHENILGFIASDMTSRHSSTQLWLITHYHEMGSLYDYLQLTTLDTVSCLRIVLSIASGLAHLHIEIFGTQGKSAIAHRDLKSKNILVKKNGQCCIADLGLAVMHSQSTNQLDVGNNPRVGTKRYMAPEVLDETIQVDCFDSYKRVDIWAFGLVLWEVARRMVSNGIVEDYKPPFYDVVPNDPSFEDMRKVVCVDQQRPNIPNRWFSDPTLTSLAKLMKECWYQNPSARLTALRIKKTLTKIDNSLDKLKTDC
Briefly: HTRF pSMAD1 cell-based ALK2 assay (C2C12 cells, BMP6 as agonist). The note with it: cell-based assay, BMP6; read-out: Cell IC50 BMP6. The essentials:
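Phospho-SMAD1 HTRF readout, detection incubated overnight at room temperature. Before that: starved cells in 0.1% FBS for 4 h, 30 min compound pretreatment, then 30 min agonist, BMP6 on C2C12 or BMP9 on BAOEC.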

The nature of experiment [2]: Cell-based assay, TGFb1 (Cell IC50).
The target in another experiment is ALK1 (Homo sapiens, UniProt P37023). Briefly: TR-FRET enzymatic ALK kinase assay, ALK1. In general terms: Time-resolved FRET reads energy transfer from a long-lived donor to a nearby acceptor.
Sequence of ALK1 (P37023 22-503): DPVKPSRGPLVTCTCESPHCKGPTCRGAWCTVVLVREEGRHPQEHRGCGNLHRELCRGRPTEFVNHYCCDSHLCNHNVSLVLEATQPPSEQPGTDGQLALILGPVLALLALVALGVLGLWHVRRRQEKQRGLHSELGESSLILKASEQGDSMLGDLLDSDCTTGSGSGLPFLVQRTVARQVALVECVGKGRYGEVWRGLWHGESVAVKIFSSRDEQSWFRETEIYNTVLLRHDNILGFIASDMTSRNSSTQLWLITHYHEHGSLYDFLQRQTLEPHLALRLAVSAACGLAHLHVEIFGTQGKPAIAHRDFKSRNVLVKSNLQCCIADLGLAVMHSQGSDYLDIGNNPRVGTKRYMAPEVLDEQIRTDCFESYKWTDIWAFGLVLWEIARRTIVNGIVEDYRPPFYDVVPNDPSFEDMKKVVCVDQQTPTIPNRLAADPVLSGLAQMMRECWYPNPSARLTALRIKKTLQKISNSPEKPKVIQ
Experiment [3] addresses T2, ALK2 (Homo sapiens, UniProt Q04771).
T2 sequence (Q04771 21-509): T1 sequence (P37172 21-509) with V1M, Q10P, I121L, E162D, S310P
The experiment is described as follows: TR-FRET enzymatic ALK kinase assay, ALK2.
Experimental: (§1) Briefly, the ALKs enzymatic assay was initiated by dispense 2.5 μl enzyme in 1× kinase reaction buffer. The assay plate was then added with compounds followed by incubation at room temperature for 10 minutes. Then 2.5 μl/well substrate was added.

In a further experiment the target is ALK3 (Homo sapiens, UniProt P36894). Briefly: TR-FRET enzymatic ALK kinase assay, ALK3.
Sequence of ALK3 (P36894 24-532): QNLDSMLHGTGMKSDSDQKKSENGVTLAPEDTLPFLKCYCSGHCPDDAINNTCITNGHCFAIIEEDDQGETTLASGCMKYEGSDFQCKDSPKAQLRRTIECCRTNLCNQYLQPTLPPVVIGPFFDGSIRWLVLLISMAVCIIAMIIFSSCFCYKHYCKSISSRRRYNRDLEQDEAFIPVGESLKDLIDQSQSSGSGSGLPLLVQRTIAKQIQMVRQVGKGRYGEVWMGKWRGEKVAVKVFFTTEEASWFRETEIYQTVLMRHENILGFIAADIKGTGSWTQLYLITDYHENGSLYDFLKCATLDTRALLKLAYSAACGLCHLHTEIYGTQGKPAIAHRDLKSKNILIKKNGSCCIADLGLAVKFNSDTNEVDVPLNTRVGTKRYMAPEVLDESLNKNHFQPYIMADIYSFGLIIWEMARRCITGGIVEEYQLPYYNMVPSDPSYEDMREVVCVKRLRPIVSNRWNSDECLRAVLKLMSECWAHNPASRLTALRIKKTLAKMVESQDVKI
A further experiment addresses T3, ALK4 (Homo sapiens, UniProt P36896).
T3 sequence (P36896 24-505): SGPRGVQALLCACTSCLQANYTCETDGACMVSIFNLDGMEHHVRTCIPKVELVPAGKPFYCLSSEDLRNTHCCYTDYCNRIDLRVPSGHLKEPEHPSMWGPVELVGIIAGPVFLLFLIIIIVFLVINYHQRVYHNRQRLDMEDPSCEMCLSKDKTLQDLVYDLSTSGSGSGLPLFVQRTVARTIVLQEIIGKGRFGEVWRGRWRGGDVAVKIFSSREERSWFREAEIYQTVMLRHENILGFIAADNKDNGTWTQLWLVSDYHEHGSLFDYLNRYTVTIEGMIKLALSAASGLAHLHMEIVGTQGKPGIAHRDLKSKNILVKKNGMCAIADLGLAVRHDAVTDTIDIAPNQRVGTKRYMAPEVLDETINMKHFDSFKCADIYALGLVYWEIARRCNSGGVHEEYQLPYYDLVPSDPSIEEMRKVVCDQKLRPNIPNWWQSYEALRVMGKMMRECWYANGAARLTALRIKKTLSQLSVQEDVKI
Briefly: TR-FRET enzymatic ALK kinase assay, ALK4.

For another experiment, the target named is T4, ALK5 (Homo sapiens, UniProt P36897).
T4 sequence (P36897 34-503): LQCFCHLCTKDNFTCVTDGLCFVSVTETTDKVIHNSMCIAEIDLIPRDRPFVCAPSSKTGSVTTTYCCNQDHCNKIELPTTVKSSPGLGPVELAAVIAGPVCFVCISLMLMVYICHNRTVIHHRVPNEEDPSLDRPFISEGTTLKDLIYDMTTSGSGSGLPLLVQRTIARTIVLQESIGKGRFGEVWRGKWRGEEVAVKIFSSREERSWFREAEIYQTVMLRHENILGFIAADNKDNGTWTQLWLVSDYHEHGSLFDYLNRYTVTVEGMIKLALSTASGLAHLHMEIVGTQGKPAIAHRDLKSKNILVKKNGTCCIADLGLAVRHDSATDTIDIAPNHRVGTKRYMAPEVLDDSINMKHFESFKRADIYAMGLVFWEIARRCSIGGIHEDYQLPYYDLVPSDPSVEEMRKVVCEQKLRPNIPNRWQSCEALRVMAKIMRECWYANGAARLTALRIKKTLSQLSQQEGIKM
Briefly: TR-FRET enzymatic ALK kinase assay, ALK5.

The target in a further experiment is ALK6 (Homo sapiens, UniProt O00238). The experiment is described as follows: TR-FRET enzymatic ALK kinase assay, ALK6.
Sequence of ALK6 (O00238 14-502): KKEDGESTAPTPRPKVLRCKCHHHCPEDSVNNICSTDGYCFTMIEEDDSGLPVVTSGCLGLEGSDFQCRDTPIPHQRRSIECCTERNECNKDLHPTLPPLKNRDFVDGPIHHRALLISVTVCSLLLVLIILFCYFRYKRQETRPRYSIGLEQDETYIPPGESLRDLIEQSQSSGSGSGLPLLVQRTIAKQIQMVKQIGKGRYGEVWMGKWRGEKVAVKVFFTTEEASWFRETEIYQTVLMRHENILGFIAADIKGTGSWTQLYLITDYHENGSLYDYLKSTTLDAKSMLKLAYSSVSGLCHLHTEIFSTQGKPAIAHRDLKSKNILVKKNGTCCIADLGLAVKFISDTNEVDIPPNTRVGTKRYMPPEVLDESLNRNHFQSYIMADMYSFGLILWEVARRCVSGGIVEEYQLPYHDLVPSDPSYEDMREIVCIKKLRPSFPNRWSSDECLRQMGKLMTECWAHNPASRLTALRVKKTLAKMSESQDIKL

Experimental for ALK1: as §1
Experimental for ALK3: as §1
Experimental for ALK4: as §1
Experimental for ALK5: Six ALK kinase enzyme assays were developed for determination of compound activities on ALK1, ALK2, ALK3, ALK4, ALK5 and ALK6.
as §1
Experimental for ALK6: as §1

The pIC50 is the IC50 on a negative log10 scale, so that one unit is a factor of ten. Turning to `C[C@@H]1CNC[C@H](C)N1c1ccc(-c2cnc3c(-c4ccc(-c5nn[nH]n5)c5ccccc45)cnn3c2)cc1` [Compound 26, 3-(4-(1H-tetrazol-5-yl)naphthalen-1-yl)-6-(4-((2R,6S)-2,6-dimethylpiperazin-1-yl)phenyl)pyrazolo[1,5-a]pyrimidine], the pIC50 on ALK2 [1] was 5.52; in experiment [2], 5.73; at ALK1, 7.32; at ALK2 [3] it was 7.89; on ALK3 it was 6.41; against ALK4 it was 5.52. The pIC50 against ALK5 was 5.21; against ALK6, 5.72.

Turning to `NC(=O)c1ccc(-c2cnn3cc(-c4ccc(N5CCNCC5)cc4)cnc23)c2ccccc12` [Compound 2, 4-(6-(4-(piperazin-1-yl)phenyl)pyrazolo[1,5-a]pyrimidin-3-yl)-1-naphthamide], the pIC50 is 7.55 at ALK2 [1]; 6.48 in experiment [2]; 7.74 against ALK1; 8.35 against ALK2 [3]; 6.83 against ALK3; 4.95 at ALK4. In addition, the negative logarithm of the IC50 (pIC50) is 4.25 against ALK5 and 5.68 on ALK6.

In the case of `CNS(=O)(=O)c1cccc2c(-c3cnn4cc(-c5ccc(N6[C@H](C)CNC[C@@H]6C)cc5)cnc34)cccc12` [Compound 41, 5-(6-(4-((2R,6S)-2,6-dimethylpiperazin-1-yl)phenyl)pyrazolo[1,5-a]pyrimidin-3-yl)-N-methylnaphthalene-1-sulfonamide], the pIC50 on ALK2 [1] was 6.83; in experiment [2], 5.53; at ALK1 it was 6.27; at ALK2 [3] it was 6.92; on ALK3, 5.80; against ALK4, < 5.00. The pIC50 on ALK5 is < 5.00; on ALK6, 5.19.

Take `CC(C)(CN1CCCCC1)Oc1ccc(-c2cnc3c(-c4cccc(S(C)(=O)=O)c4)cnn3c2)cc1` [Compound 101, 6-(4-((2-methyl-1-(piperidin-1-yl)propan-2-yl)oxy)phenyl)-3-(3-(methylsulfonyl)phenyl)pyrazolo[1,5-a]pyrimidine]: the negative logarithm of the IC50 (pIC50) at ALK2 [1] was 6.69; in experiment [2], 5.48; on ALK1, 7.17; at ALK2 [3], 7.55; against ALK3, 5.68; against ALK4, 5.22. Also, the negative-log IC50 (pIC50) against ALK5 and against ALK6 was < 5.00 throughout.

With `CS(=O)(=O)c1cccc(-c2cnn3cc(-c4ccc(C5CCNCC5)cc4)cnc23)c1` [Compound 94, 3-(3-(methylsulfonyl)phenyl)-6-(4-(piperidin-4-yl)phenyl)pyrazolo[1,5-a]pyrimidine], the pIC50 was 6.37 on ALK2 [1]; 5.36 in experiment [2]; 6.66 on ALK1; 7.28 against ALK2 [3]; 5.21 against ALK3; < 5.00 at ALK4. For the same compound, the pIC50 against ALK5 and against ALK6 was < 5.00 throughout.

Regarding `C[C@@H]1CNC[C@H](C)N1c1ccc(-c2cnc3c(-c4ccc(N)c(S(N)(=O)=O)c4)cnn3c2)cc1` [Compound 85, 2-amino-5-(6-(4-((2R,6S)-2,6-dimethylpiperazin-1-yl)phenyl)pyrazolo[1,5-a]pyrimidin-3-yl)benzenesulfonamide], the negative logarithm of the IC50 (pIC50) on ALK2 [1] was 6.96; in experiment [2], 5.25; against ALK1, 6.92; against ALK2 [3], 7.41; against ALK3, 5.77; on ALK4, 5.14. Besides, the pIC50 against ALK5 and at ALK6 was < 5.00 in each case.

Regarding `NS(=O)(=O)c1cccc(-c2cnn3cc(-c4ccc(C5CCNCC5)cc4)cnc23)c1` [Compound 95, 3-(6-(4-(piperidin-4-yl)phenyl)pyrazolo[1,5-a]pyrimidin-3-yl)benzenesulfonamide], the pIC50 at ALK2 [1] is 5.82; in experiment [2], 7.19; against ALK1, 6.28; against ALK2 [3] it was 7.10; on ALK3, 5.01; against ALK4, < 5.00. Also, the pIC50 at ALK5 and on ALK6 was < 5.00 in each case.

Consider `CC(O)c1cccc(-c2cnn3cc(-c4ccc(CCN5CCCCC5)cc4)cnc23)c1` (stereo not shown) [Compound 97, 1-(3-(6-(4-(2-(piperidin-1-yl)ethyl)phenyl)pyrazolo[1,5-a]pyrimidin-3-yl)phenyl)ethanol], for which the pIC50 at ALK2 [1] was 5.94; in experiment [2], 8.92; on ALK1 it was 6.29; against ALK2 [3], 7.00; against ALK3 it was 5.52; against ALK4 it was < 5.00. For the same compound, the pIC50 against ALK5 and on ALK6 was < 5.00 in each case.

As to `CC(C)(O)c1cccc(-c2cnn3cc(-c4ccc(CCN5CCCCC5)cc4)cnc23)c1` [Compound 99, 2-(3-(6-(4-(2-(piperidin-1-yl)ethyl)phenyl)pyrazolo[1,5-a]pyrimidin-3-yl)phenyl)propan-2-ol], the negative-log IC50 (pIC50) on ALK2 [1] is 6.29; in experiment [2], 4.34; against ALK1, 6.60; on ALK2 [3], 7.37; on ALK3, 5.66; on ALK4, < 5.00. Moreover, the negative logarithm of the IC50 (pIC50) against ALK5 and on ALK6 was < 5.00 throughout.

With `CNS(=O)(=O)c1cccc(-c2cnn3cc(-c4ccc(N5[C@H](C)CNC[C@@H]5C)cc4)cnc23)c1` [Compound 76, 3-(6-(4-((2R,6S)-2,6-dimethylpiperazin-1-yl)phenyl)pyrazolo[1,5-a]pyrimidin-3-yl)-N-methylbenzenesulfonamide], the pIC50 at ALK2 [1] was 7.17; in experiment [2], 6.10; on ALK1, 7.24; at ALK2 [3], 7.70; at ALK3, 6.05; on ALK4 it was 5.32. Also, the pIC50 at ALK5 and against ALK6 was < 5.00 each time.

Regarding `C[C@@H]1CNC[C@H](C)N1c1ccc(-c2cnc3c(-c4ccc(C(N)=O)c5ccccc45)cnn3c2)cc1` [Compound 9, 4-(6-(4-((2S,6R)-2,6-dimethylpiperazin-1-yl)phenyl)pyrazolo[1,5-a]pyrimidin-3-yl)-1-naphthamide], the negative logarithm of the IC50 (pIC50) was 7.96 at ALK2 [1]; 6.70 in experiment [2]; 8.40 at ALK1; 8.22 on ALK2 [3]; 7.38 on ALK3; 6.04 against ALK4. Also, the pIC50 on ALK5 is 5.27; on ALK6, 6.65.

The values above are taken from patent US10513521B2, “Compositions and methods for inhibiting BMP” (The Brigham and Women's Hospital, Inc., priority 2014, dated 2019).
